Legend:
full length p300 [1] = target: T1, full length p300 (Homo sapiens, UniProt Q09472); experiment: In vitro p300 acetylation assay (immunoblot); format: biochemical; details: for effect on p300 catalysed acetyltransferase activity: FIG. 2i, immunoblot
T1 construct: Purified full length p300 protein was used for in vitro acetylation/butyrylation assay
Experimental: (§1) Purified full length p300 protein was used for in vitro acetylation/butyrylation assay in presence/absence of different compounds. Acylation reactions were performed in reaction buffer (25 mM Tris-HCl PH 7.5, 100 mM NaCl, 0.1 mM EDTA, 1 mM DTT, 10% Glycerol, 1×PIC) with 100 ng/ml TSA, and 50 μM Butyryl-CoA/Acetyl COA. Xenopus histone H3 (500 ng) was used as the substrate and p300 (10,000 cpm activity) was used as the enzyme. Reactions were incubated in presence or absence of small molecule modulators (including compound of Formula I) for 10 minutes at 30° C., followed by initiation of the acetylation/butyrylation reaction by the addition of acetyl/butyryl CoA. After a further 10 minutes, reactions were stopped by addition of Laemmli buffer and samples were used for immunoblotting.
(§2) Immunoblotting with antibodies against acetylated H3K18, acetylated H3K9 and pan-butyryl lysine was performed to check for the relative inhibition of acetyl transferase and butyryl transferase activities of full length p300 by garcinol, isogarcinol and its different derivatives including compound of Formula I at different concentrations. FIG. 2i depicts the effect of garcinol, isogarcinol and two of its derivatives LTK-13 and LTK-14 on p300 catalysed acetyltransferase activity. […] FIG. 2ii depicts the effect of LTK-14 on acetylation and butyrylation catalysed by p300. Lane 1, enzyme alone; Lane 2-4, enzyme+LTK-14 at concentrations 500 nM, 2 μM and 10 μM, respectively. LTK-14 could inhibit acetylation at 10 μM concentration while butyrylation was inhibited at 2 μM concentration. FIG. 2iii depicts the effect of compound x on acetylation and butyrylation catalysed by p300. Lane 1, enzyme alone; Lane 2, enzyme+DMSO; Lane 3-6, enzyme+compound x at concentrations 10, 15, 20 and 25 μM, respectively.

full length p300 [2] = target: T1, full length p300; experiment: In vitro p300 butyrylation assay (immunoblot); format: biochemical; details: for effect on p300 catalysed butyrylation: FIG. 2 legend
Experimental: as §1, §2

[3] = tested at 500 nM, 2 μM and 10 μM

T1 sequence (Q09472 whole entry, species assumed): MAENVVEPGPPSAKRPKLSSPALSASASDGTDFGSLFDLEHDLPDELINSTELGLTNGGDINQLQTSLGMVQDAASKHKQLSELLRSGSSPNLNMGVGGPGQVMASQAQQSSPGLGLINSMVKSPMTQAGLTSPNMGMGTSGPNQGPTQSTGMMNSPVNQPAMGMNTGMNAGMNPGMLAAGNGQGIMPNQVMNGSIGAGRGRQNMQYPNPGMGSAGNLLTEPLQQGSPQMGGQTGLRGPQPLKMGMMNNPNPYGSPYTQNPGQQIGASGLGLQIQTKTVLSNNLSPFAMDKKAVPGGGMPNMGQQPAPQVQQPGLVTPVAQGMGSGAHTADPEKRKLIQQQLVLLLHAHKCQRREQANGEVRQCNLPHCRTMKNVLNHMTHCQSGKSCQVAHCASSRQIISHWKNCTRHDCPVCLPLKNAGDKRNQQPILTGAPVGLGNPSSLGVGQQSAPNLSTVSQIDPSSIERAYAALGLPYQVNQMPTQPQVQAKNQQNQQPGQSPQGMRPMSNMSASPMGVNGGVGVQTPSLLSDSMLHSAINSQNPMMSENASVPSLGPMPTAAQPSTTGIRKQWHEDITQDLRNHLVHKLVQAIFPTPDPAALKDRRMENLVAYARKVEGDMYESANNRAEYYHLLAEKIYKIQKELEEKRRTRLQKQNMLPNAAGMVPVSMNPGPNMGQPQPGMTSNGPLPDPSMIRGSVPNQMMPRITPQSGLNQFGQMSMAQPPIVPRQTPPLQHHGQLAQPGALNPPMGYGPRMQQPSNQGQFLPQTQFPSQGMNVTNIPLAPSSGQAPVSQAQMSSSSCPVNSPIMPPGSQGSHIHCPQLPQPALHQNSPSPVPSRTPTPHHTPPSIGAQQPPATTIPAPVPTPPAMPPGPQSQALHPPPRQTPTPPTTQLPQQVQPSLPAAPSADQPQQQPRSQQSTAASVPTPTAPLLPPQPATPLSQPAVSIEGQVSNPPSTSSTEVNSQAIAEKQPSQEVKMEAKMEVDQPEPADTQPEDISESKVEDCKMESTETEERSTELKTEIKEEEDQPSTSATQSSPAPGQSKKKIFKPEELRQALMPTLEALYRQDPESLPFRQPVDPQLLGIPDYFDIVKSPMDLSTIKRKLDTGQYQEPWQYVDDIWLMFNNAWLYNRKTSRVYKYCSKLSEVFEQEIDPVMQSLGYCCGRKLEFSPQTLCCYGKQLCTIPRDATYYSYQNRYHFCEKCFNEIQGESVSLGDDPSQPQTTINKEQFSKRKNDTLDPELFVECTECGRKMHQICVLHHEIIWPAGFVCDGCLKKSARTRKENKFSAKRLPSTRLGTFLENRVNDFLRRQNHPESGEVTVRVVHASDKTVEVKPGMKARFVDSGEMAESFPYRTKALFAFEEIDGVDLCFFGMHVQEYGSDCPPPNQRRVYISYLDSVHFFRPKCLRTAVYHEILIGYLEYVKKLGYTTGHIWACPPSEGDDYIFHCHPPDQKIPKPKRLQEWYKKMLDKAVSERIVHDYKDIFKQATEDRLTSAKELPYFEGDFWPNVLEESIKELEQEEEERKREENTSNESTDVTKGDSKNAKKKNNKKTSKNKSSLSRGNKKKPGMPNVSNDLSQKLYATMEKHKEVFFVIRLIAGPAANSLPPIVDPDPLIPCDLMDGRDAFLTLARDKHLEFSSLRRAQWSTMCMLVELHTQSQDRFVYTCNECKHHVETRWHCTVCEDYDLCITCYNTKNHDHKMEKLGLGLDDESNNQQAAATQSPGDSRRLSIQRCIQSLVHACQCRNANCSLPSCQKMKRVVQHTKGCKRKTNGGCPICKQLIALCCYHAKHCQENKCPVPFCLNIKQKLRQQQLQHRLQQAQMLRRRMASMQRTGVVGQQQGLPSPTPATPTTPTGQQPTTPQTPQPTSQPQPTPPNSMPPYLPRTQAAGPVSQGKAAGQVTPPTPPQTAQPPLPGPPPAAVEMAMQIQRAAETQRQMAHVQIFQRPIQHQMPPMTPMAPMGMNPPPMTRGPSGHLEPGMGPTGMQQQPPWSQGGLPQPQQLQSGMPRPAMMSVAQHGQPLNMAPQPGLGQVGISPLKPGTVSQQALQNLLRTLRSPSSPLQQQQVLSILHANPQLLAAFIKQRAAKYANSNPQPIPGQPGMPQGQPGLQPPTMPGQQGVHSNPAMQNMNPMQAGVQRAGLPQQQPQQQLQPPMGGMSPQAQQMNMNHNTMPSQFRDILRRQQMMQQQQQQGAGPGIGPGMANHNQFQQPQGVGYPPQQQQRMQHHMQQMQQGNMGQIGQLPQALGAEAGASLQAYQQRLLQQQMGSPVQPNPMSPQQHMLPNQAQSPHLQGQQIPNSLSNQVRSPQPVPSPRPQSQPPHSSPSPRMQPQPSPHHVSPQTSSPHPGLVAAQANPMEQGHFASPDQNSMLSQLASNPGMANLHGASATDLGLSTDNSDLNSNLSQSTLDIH

| SMILES | effect on p300 catalysed acetyltransferase activity (full length p300 [1]) | effect on p300 catalysed butyrylation (full length p300 [2]) | concentration at which acetylation was inhibited (full length p300 [1]; [3]) [µM] | concentration at which butyrylation was inhibited (full length p300 [2]; [3]) [µM] |
| --- | --- | --- | --- | --- |
| CC(C)=CC[C@H]1C[C@@]23C[C@@H](CC=C(C)C)C(C)(C)[C@@](CC=C(C)C)(C(=O)C(C(=O)c4ccc(O)c(O)c4)=C2OC1(C)C)C3=O [isogarcinol] | showed inhibitory effect | can inhibit |  |  |
| COc1ccc(C(=O)C2=C3OC(C)(C)[C@@H](CC=C(C)C)C[C@@]34C[C@@H](CC=C(C)C)C(C)(C)[C@@](CC=C(C)C)(C2=O)C4=O)cc1O [LTK-14] | showed inhibitory effect | can inhibit | 10 | 2 |

Reference: patent US20240269106A1, “SMALL MOLECULE MODULATOR TARGETING A RARE HISTONE MODIFICATION REGULATING ADIPOGENESIS AND PHARMACEUTICAL FORMULATION THEREOF” (COUNCIL OF SCIENTIFIC AND INDUSTRIAL RESEARCH AN INDIAN …, priority 2021, published 2024)
